Assays:
Assay in all cases: Inhibition zone test of compositions on Mueller Hinton lawn
Assay type in all cases: cell-based
B. cereus = conditions: MPK2 200 AU/mL, 24 hours
Method: (§1) Different compositions comprising the MicroPacin K2 polypeptide were prepared in different vehicles: 10% w/v methanol, 10% w/v glycerol, 0.5% w/v polyethylene glycol, and water. In the case of the MicroPacin K2 polypeptide, it was used at a concentration of 200 AU/mL in each composition.
(§2) A 5 μL aliquot of each of the prepared compositions was taken and added to a plate with Mueller Hinton medium containing the sensitivity indicator bacteria, previously seeded in the form of a lawn. The plates were then incubated for 24 hours, and the antibacterial activity of the compositions was observed according to the appearance and size of the inhibition zone. This test, in turn, was performed under the same conditions with the commercial bacteriocin Nisin as a comparator agent, which is considered a gold standard bacteriocin, for being approved by the FDA (Food and Drug Administration).
(§3) In this example, the antibacterial effect of compositions comprising the polypeptide MicroPacin K2 and an additional antibacterial agent, including nisin (5,000 AU/mL), ampicillin (0.01 μg/mL), and tetracycline (0.05 μg/mL), is evaluated. The assay was performed using distilled water as the vehicle for the composition. The final concentration of MicroPacin K2 in the compositions evaluated was 200 AU/mL.

L. monocytogenes = conditions: MPK2 200 AU/mL, 24 hours
Method: as §1, §2, §3

S. sonnei = conditions: for Zone of growth inhibition: S. sonnei, MPK2 200 AU/mL, 24 hours
Method: as §1, §2, §3

E. coli O157:H7 = conditions: for Zone of growth inhibition: MPK2 200 AU/mL, 24 hours
Method: as §1, §2, §3

S. saprophyticus = conditions: MPK2 200 AU/mL, 24 hours
Method: as §1, §2, §3

S. aureus = conditions: MPK2 200 AU/mL, 24 hours
Method: as §1, §2, §3

C. freundii = conditions: MPK2 200 AU/mL, 24 hours
Method: as §1, §2, §3

E. coli DH5α = conditions: MPK2 200 AU/mL, 24 hours
Method: as §1, §2, §3

Nisin [reference compound]
7.0 mm: Zone of growth inhibition (C. freundii; vehicle PEG 0.5%)
0 mm: Zone of growth inhibition (S. sonnei; vehicle Glycerol 10%) | Zone of growth inhibition (S. sonnei; vehicle H2O) | Zone of growth inhibition (S. sonnei; vehicle Methanol 10%) | Zone of growth inhibition (S. sonnei; vehicle PEG 0.5%) | Zone of growth inhibition (E. coli O157:H7; vehicle Glycerol 10%) | Zone of growth inhibition (E. coli O157:H7; vehicle H2O) | Zone of growth inhibition (E. coli O157:H7; vehicle Methanol 10%) | Zone of growth inhibition (E. coli O157:H7; vehicle PEG 0.5%)
not able to inhibit their growth: Inhibition of growth (inhibition halo) (S. sonnei; Shigella sonnei, compositions) | Inhibition of growth (inhibition halo) (E. coli O157:H7; compositions)
10.0 mm: Zone of growth inhibition (S. saprophyticus; vehicle Glycerol 10%) | Zone of growth inhibition (S. saprophyticus; vehicle H2O) | Zone of growth inhibition (S. saprophyticus; vehicle Methanol 10%)
8.0 mm: Zone of growth inhibition (B. cereus; vehicle H2O) | Zone of growth inhibition (B. cereus; vehicle Methanol 10%) | Zone of growth inhibition (S. aureus; vehicle Methanol 10%) | Zone of growth inhibition (S. aureus; vehicle PEG 0.5%) | Zone of growth inhibition (C. freundii; vehicle Glycerol 10%) | Zone of growth inhibition (C. freundii; vehicle H2O) | Zone of growth inhibition (C. freundii; vehicle Methanol 10%) | Zone of growth inhibition (E. coli DH5α; vehicle Glycerol 10%) | Zone of growth inhibition (E. coli DH5α; vehicle H2O) | Zone of growth inhibition (E. coli DH5α; vehicle Methanol 10%) | Zone of growth inhibition (E. coli DH5α; vehicle PEG 0.5%)
9.0 mm: Zone of growth inhibition (B. cereus; vehicle Glycerol 10%) | Zone of growth inhibition (B. cereus; vehicle PEG 0.5%) | Zone of growth inhibition (L. monocytogenes; vehicle Glycerol 10%) | Zone of growth inhibition (L. monocytogenes; vehicle H2O) | Zone of growth inhibition (L. monocytogenes; vehicle Methanol 10%) | Zone of growth inhibition (L. monocytogenes; vehicle PEG 0.5%) | Zone of growth inhibition (S. saprophyticus; vehicle PEG 0.5%) | Zone of growth inhibition (S. aureus; vehicle Glycerol 10%) | Zone of growth inhibition (S. aureus; vehicle H2O)

— patent US20260070951A1, “MICROPAKINE K2 ANTIMICROBIAL POLYPEPTIDE, COMPOSITION COMPRISING IT AND USE FOR TREATING BACTERIAL INFECTIONS” (priority 2022, published 2026)
